Assay results published in patent EP0003008A1 (priority 1977, dated 1979).
Where “and” joins values, the source holds several entries; their conditions need not be identical. Equal values may be shown once. Read-outs that look alike come from different tables or passages of the source.

Tests used:
[1] = molecular target: cell-free influenza polymerase (Influenza A virus, UniProt P03431); assay: Cell-free influenza polymerase assay; format: biochemical; settings: in diluted urine; assay mixture includes Mn2+; used as standard; read-out: 50% inhibition
[2] = Acid stability test in 0.1 N HCl, thin layer chromatography estimate of decomposition products; format: physicochemical; settings: 100 µg compound applied
Experimental: The acid stability was investigated by dissolving 5 mg of each compound in 1 ml of 0.1 N HC1 in a test tube. For use as references 0.2 ml of each solution was withdrawn, immediately treated with 0.2 ml of a 10 % aqueous solution of NaHCO3 and frozen. The remaining 0.8 ml of each solution was incubated at 37°C for 2 hours. After incubation, 0.8 ml of a 10 % aqueous solution of NaHCO3 was added to each solution and the solutions were frozen. The incubated compounds and the reference compounds were ly ophilized to dryness and redissolved in distilled H20, 0.2 ml and 1.0 ml respectively, for each reference solution and incubated solution. The solutions were applied to silica gel (Merck PF254, 20x20 cm) and polyethylene imine (Macherey-Nagel PEI, 20x20 cm) thin layer plates. A total of 20 µl of the reference solutions (100 µg compound) and 25 µl of the incubated solutions (100 µg compound) were applied. To each plate was also added, as references, solutions of phosphorous acid (H2HPO3) (5 and 20 µg) and of trisodiumphosphonoformate (5 and 20 µg). (Decomposition of phosphonoformic acid at low pH produces phosphorous acid).
The silica gel plates were prepared in duplicate and eluted with a solution composed of methanol - 10% aq ammonia - trichloroacetic acid - water (50-15-5-3, v/v) and the polyethylene imine plates were eluted with a 1M aq lithium chloride solution. After elution the plates were dried. One of the duplicated silica gel plates was sprayed with 4 % aq . (NH4)2MoO4 and the polyethylene imine plates were sprayed with a solution composed of 60 % HClO4 - 0.1N aq Hcl - 4% aq (NH4)2MoO4 - H2O (5-10-25-60, v/v). The silica gel plates were hriefly dried at 80-90°C and sprayed with 1% SnCl2 in 10% aq RCl. phosphorous acid and phosphonic acid groups appeared as blue apots on the siliea gel plates (System 1) and as white spots on the polyethylene imine plates (System II). The remaining duplicate silica gel plates were exposed to iodine vapor for detection of di- and triesters of phosphonoformic acid. […]

[3] = 10 µmol intraperitoneally, urine from two male mice
[4] = tested on: influenza (WSN Wilson Smith Neurotropic type A); assay: Plaque assay of influenza (WSN) on cell monolayers; format: cell-based, influenza virus (WSN); settings: conc. of test compound 500 μM, 34°C for 4 days, two values given
[5] = incubated in 0.1 N HCl at 37°C for 2 hours

Chain of cell-free influenza polymerase (P03431 whole entry, looked up): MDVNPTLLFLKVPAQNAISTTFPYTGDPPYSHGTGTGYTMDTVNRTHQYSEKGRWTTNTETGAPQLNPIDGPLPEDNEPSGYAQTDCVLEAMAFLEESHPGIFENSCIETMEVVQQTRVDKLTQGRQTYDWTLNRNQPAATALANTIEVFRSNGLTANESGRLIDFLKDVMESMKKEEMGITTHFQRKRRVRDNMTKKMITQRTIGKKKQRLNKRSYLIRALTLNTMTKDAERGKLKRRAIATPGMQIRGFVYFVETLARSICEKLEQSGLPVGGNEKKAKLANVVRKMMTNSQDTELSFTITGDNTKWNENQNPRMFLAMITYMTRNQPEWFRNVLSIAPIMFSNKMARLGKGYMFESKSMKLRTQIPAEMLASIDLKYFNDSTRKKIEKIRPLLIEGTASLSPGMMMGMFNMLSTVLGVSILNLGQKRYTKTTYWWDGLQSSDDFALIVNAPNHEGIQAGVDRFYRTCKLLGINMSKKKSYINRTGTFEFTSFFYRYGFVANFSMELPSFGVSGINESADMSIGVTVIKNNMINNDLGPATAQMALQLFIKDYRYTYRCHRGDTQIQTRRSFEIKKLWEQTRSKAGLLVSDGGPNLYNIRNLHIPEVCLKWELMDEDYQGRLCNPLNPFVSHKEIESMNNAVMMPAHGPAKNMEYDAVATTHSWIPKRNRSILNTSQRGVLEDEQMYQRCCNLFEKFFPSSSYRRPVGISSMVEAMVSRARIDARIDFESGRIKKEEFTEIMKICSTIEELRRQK

Compound | Estimated formation of phosphorous acid [2, 5] | Recovered phosphonoformic acid activity in urine ([3]; Day 1) | Recovered phosphonoformic acid activity in urine ([3]; Day 2) | Recovered phosphonoformic acid activity in urine ([3]; Day 3) | further results
O=C(O)P(=O)(O)O [Phosfonoformic acid, phosphonoformic acid] |  |  |  |  | IC50 [1]: 500 nM
NC(=O)P(=O)(O)O [R1=Na R2=Na R4=H R5=H] | 15 µg |  |  |  | Estimated formation of phosphorous acid ([2]; non-incubated reference solution (figure in parenthesis)): 5 µg
O=C(O)P(=O)(O)O [Trisodiumphosphonoformate, reference compound] | > 20 µg | 1.25 µmol phosphonoformic acid | 0.13 µmol phosphonoformic acid | <0.01 µmol phosphonoformic acid | 
CCOP(=O)(OCC)C(=O)N(CC)CC [VIS 228, diethyl diethylcarbamoylphosphonate] |  |  |  |  | Inhibition (%) [4]: 25% and 37%
CCN(CC)C(=O)P(=O)([O-])[O-].[Na+].[Na+] [VIS 232, disodium diethylcarbamoylphosphonate] |  | 0.63 µmol phosphonoformic acid | 0.36 µmol phosphonoformic acid | <0.01 µmol phosphonoformic acid | 
